Results as given in article PMC12378240, “(+)-/(−)-Ormohenins A and B, two pairs of ormosanine-type enantiomers and their derivatives with neuroprotective activity from Ormosia henryi Prain” (Natural Products and Bioprospecting, 2025).
Like-named read-outs stand apart in the source and are kept apart here.

What was measured:
PC12 cells = assay: Neuroprotective activity against Aβ25-35 induced PC12 cell death by MTT assay; format: cell-based; settings: for Cell viability: Aβ25-35-induced cell damage in PC12 cells, control = 1.000, model (Aβ25-35) = 0.633, test concentration not given; for EC50: Rattus norvegicus
Protocol: Meanwhile, all isolated compounds were evaluated for their neuroprotective potency against the Aβ25-35 induced PC12 cell death by MTT assay.
A cell viability assay was conducted to test the cytotoxic effects of the compounds on PC12 cells. Meanwhile, the neuroprotective activity of all compounds against the Aβ25-35 induced PC12 cell death by MTT assay. PC12 cells were divided into four groups: normal control, model, positive control (Resveratrol), and isolates intervention groups (1, 10, 20, 40, 60, 80, 100 μmol/L). Detailed experimental procedures and experimental data can be found in the Supporting Information.
Cell culture. […] The cells were maintained at 37°C in a humidified atmosphere containing 5% CO2. The culture medium was replaced every three days, and the cells were passaged when they reached 70% confluency.
Preparation of Aβ25-35. Aβ25-35 was dissolved in sterile double-distilled water to prepare a 2 mM stock solution. The solution was then incubated at 37°C for 7 days to induce aggregation.
MTT assay for cell viability. PC12 cells were divided into four groups: normal control, model, positive control (Resveratrol), and isolates intervention groups (1, 10, 20, 40, 60, 80, 100 μmol/L). The cells were seeded in 96-well plates at an appropriate density with 200 μL medium per well and were cultured for 24 hours. The positive control and intervention groups were pretreated with different concentrations of drug-containing medium for 2 hours, after which 2 μL of Aβ25-35 was added to each well of the model, positive control, and intervention groups for 24 hours. After the treatment, 20 μL of […] MTT solution was added to each well and incubated for 4 hours. The medium was then removed, and 150 μL of DMSO was added to each well. The plate was shaken until the formazan product was completely dissolved. The absorbance was measured at 570 nm using a spectrophotometer.

[1] = target: acetylcholinesterase (AChE) (Homo sapiens, UniProt P22303); assay: biochemical
Protocol: The first and the main class of drugs currently used for AD are the AChE inhibitors and are widely used for the symptomatic treatment of mild-moderate AD [2]. All alkaloids were screened toward AChE via improved Ellman’s method (Supporting Information).
The compounds were prepared in DMSO and diluted in buffer solution to different concentrations. In a 96-well plate, 140 μL of PBS (pH = 8) buffer, 20 μL of all the sample solutions were transferred in each well, and 20 μL of 0.2 U/mL AChE solution were added. The mixture was incubated at 37°C for 10 minutes. Subsequently, 10 μL of 3 mM 5,5'-dithiobis-(2-nitrobenzoic acid) (DTNB) and 10 μL of 15 mM acetylthiocholine (ATCl) were added, followed by reaction at 37 °C for 20 minutes. […] Each experimental group was set up with three replicate wells, and huperzine A was used as the positive control.

[2] = PC-12, against Aβ25-35-induced PC12 cell damage, MTT, resveratrol as positive control, read-out: EC50 (μM), neuroprotective effect
[3] = PC-12, read-out: EC50 (μM), neuroprotective effect

Chain of acetylcholinesterase (AChE) (P22303 32-614, species assumed): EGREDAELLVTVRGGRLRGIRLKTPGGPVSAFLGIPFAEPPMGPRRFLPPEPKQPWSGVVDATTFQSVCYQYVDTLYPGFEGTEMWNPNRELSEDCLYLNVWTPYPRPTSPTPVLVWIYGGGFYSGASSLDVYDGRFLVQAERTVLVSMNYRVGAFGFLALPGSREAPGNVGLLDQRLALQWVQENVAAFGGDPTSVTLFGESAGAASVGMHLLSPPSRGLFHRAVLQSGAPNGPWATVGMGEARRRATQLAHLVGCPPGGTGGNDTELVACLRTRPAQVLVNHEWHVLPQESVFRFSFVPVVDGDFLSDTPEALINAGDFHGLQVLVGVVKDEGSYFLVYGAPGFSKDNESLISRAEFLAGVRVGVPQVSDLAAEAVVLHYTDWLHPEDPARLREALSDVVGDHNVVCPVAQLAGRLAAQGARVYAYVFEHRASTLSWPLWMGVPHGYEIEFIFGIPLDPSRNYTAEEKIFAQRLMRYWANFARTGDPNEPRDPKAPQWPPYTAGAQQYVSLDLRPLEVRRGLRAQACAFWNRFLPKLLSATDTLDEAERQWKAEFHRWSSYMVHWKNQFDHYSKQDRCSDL

Compound	Cell viability (PC12 cells; MTT)	also measured
O=c1cccc2n1C[C@H]1C[C@@H]2CN2CC=CC[C@@H]12 [Compound 8, (7S,9S,11S)-15,16-dehydroanagyrine]	0.662 ± 0.041	–
CC1N2CCCCC2C23CC(CC4CCCN1C42)C1CCCCN1C3 (single isomer, unassigned; (-)) [Compound 3, (−)-ormohenin C]	0.899 ± 0.061	EC50 (PC12 cells; [2]): 15.5 µM; IC50 ([1]; improved Ellman's method, huperzine A as positive control, read-out: AChE inhibitory activity IC50): 142 ± 19.6 µM
Oc1ccc(/C=C/c2cc(O)cc(O)c2)cc1 [Resveratrol, reference compound]	0.82 ± 0.039	EC50 (PC12 cells; [2]): 5.99 µM
O=C1CC=C[C@@H]2[C@@H]3C[C@H](CN12)[C@H]1CCCCN1C3 [Compound 7, (6R,7S,9S,11R)-4,5-dehydro-α-isolupanine]	0.650 ± 0.009	–
CC1N2CCCCC2C23CC(CC4CCCN1C42)C1CCCCN1C3 (racemic) [Compound 2, (±)-Ormohenin B]	0.693 ± 0.024	–
O=c1cccc2n1C[C@@H]1CNC[C@H]2C1 [Compound 12, (+)-cytisine]	0.934 ± 0.031	EC50 (PC12 cells; [3]): 7.99 µM; IC50 [1]: 6.85 ± 1.2 µM
C1CC[C@H]([C@@]23C[C@H](C[C@H]4CCCN[C@@H]42)[C@@H]2CCCCN2C3)NC1 (racemic) [Compound 5, (±)-18-epiormosanine]	0.698 ± 0.032	–
CC1N2CCCCC2C23CC(CC4CCCN1C42)C1CCCCN1C3 (racemic) [Compound 1, (±)-Ormohenin A]	0.641 ± 0.009	–
O=C1CCC[C@@H]2[C@@H]3C[C@H](CN12)[C@@H]1CCCCN1C3 [Compound 9, (+)-lupanine]	0.974 ± 0.065	EC50 (PC12 cells; [3]): 10.4 µM
C[C@@H]1N2CCCC[C@H]2[C@@]23C[C@H](C=C4CCCN1[C@@H]42)[C@@H]1CCCCN1C3 [Compound 4, (−)-ormohenin D]	0.629 ± 0.013	–
C1CC[C@@H]([C@@]23C[C@H](C[C@H]4CCCN[C@@H]42)[C@@H]2CCCCN2C3)NC1 (racemic) [Compound 6, (±)-ormosanine]	0.704 ± 0.038	–
O=c1cccc2n1C[C@H]1C[C@@H]2CN2CCCC[C@@H]12 [Compound 10, (+)-anagyrine]	0.645 ± 0.011	–
O=C1CCC[C@@H]2[C@@H]3C[C@H](CN12)[C@H]1CCCCN1C3 [Compound 11, (+)-α-isolupanine]	0.653 ± 0.027	–
